In patent publication US20230117324A1, “OXAZINE MONOACYLGLYCEROL LIPASE (MAGL) INHIBITORS” (Hoffmann-La Roche Inc., priority 2018, published 2023) one finds IC50 data, which are given here for 26 compounds.

This assay has as its target T1, MAGL (Homo sapiens, UniProt Q99685).
T1 sequence (Q99685 1-303): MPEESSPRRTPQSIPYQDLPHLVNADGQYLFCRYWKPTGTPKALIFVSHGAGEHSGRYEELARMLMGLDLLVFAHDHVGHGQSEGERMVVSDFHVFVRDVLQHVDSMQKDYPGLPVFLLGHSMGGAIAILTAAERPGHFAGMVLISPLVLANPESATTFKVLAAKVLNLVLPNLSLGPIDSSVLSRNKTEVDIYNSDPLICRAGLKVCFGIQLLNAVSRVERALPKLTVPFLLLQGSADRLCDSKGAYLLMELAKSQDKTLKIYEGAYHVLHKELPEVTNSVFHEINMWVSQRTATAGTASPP
Briefly: MAGL inhibition, 2-AG assay (hydrolysis of 2-arachidonoylglycerol, arachidonic acid by mass spectrometry). The format is biochemical. The following applies: 2-AG assay (footnote [b]). In short, it runs like this:
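Hydrolysis of 8 μM 2-arachidonoylglycerol by […] was run for 30 min at RT after a 15 min compound preincubation, in Tris/EDTA/Tween buffer. Test compounds spanned […]. The product was measured by online SPE-MS/MS (transitions 303.1→259.1 and 311.1→267.0), and activity was derived from the arachidonic acid/d8-arachidonic acid signal ratio.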

For orientation: IC50 means the midpoint of a concentration-inhibition curve. Compound `CC1C(c2ccc(OC(F)(F)F)cc2)CN1C(=O)N1CC[C@@H]2OCC(=O)N[C@@H]2C1` (stereo partly drawn) [Example 231, (4aR,8aS)-6-(2-Methyl-3-(4-(Trifluoromethoxy)phenyl)azetidine-1-carbonyl)hexahydro-2H-pyrido[4,3-b][1,4]oxazin-3(4H)-one] yielded an IC50 of 114 nM.
To `CC1(C)COc2cc(C3CN(C(=O)N4CC[C@@H]5OCC(=O)N[C@@H]5C4)C3)ccc21` [Example 232, (4aR,8aS)-6-(3-(3,3-Dimethyl-2,3-dihydrobenzofuran-6-yl)azetidine-1-carbonyl)hexahydro-2H-pyrido[4,3-b][1,4]oxazin-3(4H)-one] belongs 7 nM; to `O=C1CO[C@H]2CCN(C(=O)N3CCC(c4cc(Cl)cc(OCC(F)(F)F)c4)C3)C[C@H]2N1` (stereo partly drawn) [Example 233, (4aR,8aS)-6-(3-(3-Chloro-5-(2,2,2-trifluoroethoxy)phenyl)pyrrolidine-1-carbonyl)hexahydro-2H-pyrido[4,3-b][1,4]oxazin-3(4H)-one], 61 nM.
On to `COC(=O)C(C)(C)c1ccc(C2CN(C(=O)N3CC[C@@H]4OCC(=O)N[C@@H]4C3)C2)cc1` [Example 234, Methyl 2-methyl-2-(4-(1-((4aR,8aS)-3-Oxooctahydro-2H-pyrido[4,3-b][1,4]oxazine-6-carbonyl)azetidin-3-yl)phenyl)propanoate], for which the IC50 amounted to 2 nM.
On to `O=C1CO[C@H]2CCN(C(=O)N3CCC(c4cc(Cl)cc(Cl)c4)C3)C[C@H]2N1` (stereo partly drawn) [Example 235, (4aR,8aS)-6-(3-(3,5-Dichlorophenyl)pyrrolidine-1-carbonyl)hexahydro-2H-pyrido[4,3-b][1,4]oxazin-3(4H)-one], for which 243 nM corresponded to half-maximal inhibition (IC50).
`COC1(C)CN(c2ccc(C3CN(C(=O)N4CC[C@@H]5OCC(=O)N[C@@H]5C4)C3)cc2)C1` [Example 236, (4aR,8aS)-6-(3-(4-(3-Methoxy-3-methylazetidin-1-yl)phenyl)azetidine-1-carbonyl)hexahydro-2H-pyrido[4,3-b][1,4]oxazin-3(4H)-one]: the IC50 was 15 nM.
Then `CC(C)(C)OC(=O)NCCOc1cccc(C(c2ccccc2)C2CCN(C(=O)N3CC[C@@H]4OCC(=O)N[C@@H]4C3)CC2)c1` (stereo partly drawn) [Example 237, tert-Butyl (2-(3-((1-((4aR,8aS)-3-oxooctahydro-2H-pyrido[4,3-b][1,4]oxazine-6-carbonyl)piperidin-4-yl)(phenyl)methyl)phenoxy)ethyl)carbamate], with 1 nM; and `COc1cc(C2CN(C(=O)N3CC[C@@H]4OCC(=O)N[C@@H]4C3)C2)ccc1C(C)(C)C` [Example 240, (4aR,8aS)-6-(3-(4-(tert-Butyl)-3-methoxyphenyl)azetidine-1-carbonyl)hexahydro-2H-pyrido[4,3-b][1,4]oxazin-3(4H)-one], with 2 nM.
To `Cn1ncc2cc(C3CN(C(=O)N4CC[C@@H]5OCC(=O)N[C@@H]5C4)C3)ccc21` [Example 241, (4aR,8aS)-6-(3-(1-Methyl-1H-indazol-5-yl)azetidine-1-carbonyl)hexahydro-2H-pyrido[4,3-b][1,4]oxazin-3(4H)-one] belongs 245 nM; to `CCCc1ccc(C2CN(C(=O)N3CC[C@@H]4OCC(=O)N[C@@H]4C3)C2)cc1` [Example 242, (4aR,8aS)-6-(3-(4-Propylphenyl)azetidine-1-carbonyl)hexahydro-2H-pyrido[4,3-b][1,4]oxazin-3(4H)-one], 2 nM; to `O=C1CO[C@H]2CCN(C(=O)N3CC(c4ccc(OC(F)(F)F)c(C(F)(F)F)c4)C3)C[C@H]2N1` [Example 243, (4aR,8aS)-6-(3-(4-(Trifluoromethoxy)-3-(trifluoromethyl)phenyl)azetidine-1-carbonyl)hexahydro-2H-pyrido[4,3-b][1,4]oxazin-3(4H)-one], 10 nM.
To `O=C1CO[C@H]2CCN(C(=O)N3CC(c4ccc(OCC5(C(F)(F)F)CC5)cc4)C3)C[C@H]2N1` [Example 244, (4aR,8aS)-6-[3-[4-[[1-(Trifluoromethyl)cyclopropyl]methoxy]phenyl]azetidine-1-carbonyl]-4,4a,5,7,8,8a-hexahydropyrido[4,3-b][1,4]oxazin-3-one] belongs 0.3 nM; to `CC(C)(c1ccc(C2CN(C(=O)N3CC[C@@H]4OCC(=O)N[C@@H]4C3)C2)cc1)C(F)(F)F` [Example 245, (4aR,8aS)-6-[3-[4-(2,2,2-Trifluoro-1,1-dimethyl-ethyl)phenyl]azetidine-1-carbonyl]-4,4a,5,7,8,8a-hexahydropyrido[4,3-b][1,4]oxazin-3-one], 0.4 nM; to `O=C1CO[C@H]2CCN(C(=O)N3CC(c4ccc(CCCF)cc4)C3)C[C@H]2N1` [Example 247, (4aR,8aS)-6-[3-[4-(3-Fluoropropyl)phenyl]azetidine-1-carbonyl]-4,4a,5,7,8,8a-hexahydropyrido[4,3-b][1,4]oxazin-3-one], 6 nM.
`COc1cc(C2CN(C(=O)N3CC[C@@H]4OCC(=O)N[C@@H]4C3)C2)ccc1C` [Example 250, (4aR,8aS)-6-[3-(3-Methoxy-4-methyl-phenyl)azetidine-1-carbonyl]-4,4a,5,7,8,8a-hexahydropyrido[4,3-b][1,4]oxazin-3-one] yielded an IC50 of 106 nM.
`Cn1nc(OC(c2ccc(F)cc2)C2CCN(C(=O)N3CC[C@@H]4OCC(=O)N[C@@H]4C3)CC2)cc1C(F)(F)F` (stereo partly drawn) [Example 251, (4aR,8aS)-6-(4-((4-Fluorophenyl)((1-methyl-5-(trifluoromethyl)-1H-pyrazol-3-yl)oxy)methyl)piperidine-1-carbonyl)hexahydro-2H-pyrido[4,3-b][1,4]oxazin-3(4H)-one]: the midpoint of inhibition, the IC50, lay at 1 nM.
To `NCCOc1cccc(C(c2ccccc2)C2CCN(C(=O)N3CC[C@@H]4OCC(=O)N[C@@H]4C3)CC2)c1` (stereo partly drawn) [Example 252, (4aR,8aS)-6-[4-[[3-(2-Aminoethoxy)phenyl]-phenyl-methyl]piperidine-1-carbonyl]-4,4a,5,7,8,8a-hexahydropyrido[4,3-b][1,4]oxazin-3-one] belongs 2 nM; to `O=C1CO[C@H]2CCN(C(=O)N3CC(c4nnc(-c5ccc(Cl)cc5Cl)o4)C3)C[C@H]2N1` [Example 253, (4aR,8aS)-6-[3-[5-(2,4-Dichlorophenyl)-1,3,4-oxadiazol-2-yl]azetidine-1-carbonyl]-4,4a,5,7,8,8a-hexahydropyrido[4,3-b][1,4]oxazin-3-one], 4 nM; to `O=C1CO[C@H]2CCN(C(=O)N3CC(c4ccc(C(F)(F)F)c(F)c4)C3)C[C@H]2N1` [Example 254], 82 nM.
`CC(C)(C)OC(=O)NCCOCCC(=O)NCCOc1cccc(C(c2ccccc2)C2CCN(C(=O)N3CC[C@@H]4OCC(=O)N[C@@H]4C3)CC2)c1` (stereo partly drawn) [Example 255, tert-Butyl N-[2-[3-[2-[3-[[1-[(4aR,8aS)-3-oxo-4,4a,5,7,8,8a-hexahydropyrido[4,3-b][1,4]oxazine-6-carbonyl]-4-piperidyl]-phenyl-methyl]phenoxy]ethylamino]-3-oxo-propoxy]ethyl]carbamate] had an IC50 of 2 nM.
To `CC(C)(C)OC(=O)NCCOCCOCCC(=O)NCCOc1cccc(C(c2ccccc2)C2CCN(C(=O)N3CC[C@@H]4OCC(=O)N[C@@H]4C3)CC2)c1` (stereo partly drawn) [Example 256, tert-Butyl N-[2-[2-[3-[2-[3-[[1-[(4aR,8aS)-3-oxo-4,4a,5,7,8,8a-hexahydropyrido[4,3-b][1,4]oxazine-6-carbonyl]-4-piperidyl]-phenyl-methyl]phenoxy]ethylamino]-3-oxo-propoxy]ethoxy]ethyl]carbamate] belongs 2 nM; to `O=C1CO[C@H]2CCN(C(=O)N3CC(c4ccn(-c5ccc(Cl)cc5Cl)n4)C3)C[C@H]2N1` [Example 257, (4aR,8aS)-6-[3-[1-(2,4-Dichlorophenyl)pyrazol-3-yl]azetidine-1-carbonyl]-4,4a,5,7,8,8a-hexahydropyrido[4,3-b][1,4]oxazin-3-one], 233 nM.
In the case of `CCCOc1ccc(C2CN(C(=O)N3CC[C@@H]4OCC(=O)N[C@@H]4C3)C2)cc1` [Example 258, (4aR,8aS)-6-[3-(4-Propoxyphenyl)azetidine-1-carbonyl]-4,4a,5,7,8,8a-hexahydropyrido[4,3-b][1,4]oxazin-3-one], the IC50 turned out to be 5 nM.
In turn, `Cc1ccc(C2CN(C(=O)N3CC[C@@H]4OCC(=O)N[C@@H]4C3)C2)cc1C` [Example 259, (4aR,8aS)-6-[3-(3,4-Dimethylphenyl)azetidine-1-carbonyl]-4,4a,5,7,8,8a-hexahydropyrido [4,3-b][1,4]oxazin-3-one] returned an IC50 of 30 nM.
To `CCNC(=O)c1cc(C)ccc1-c1ccc(C2CN(C(=O)N3CC[C@@H]4OCC(=O)N[C@@H]4C3)C2)cc1` [Example 260, 2-[4-[1-[(4aR,8aS)-3-Oxo-4,4a,5,7,8,8a-hexahydropyrido[4,3-b][1,4]oxazine-6-carbonyl]azetidin-3-yl]phenyl]-N-ethyl-5-methyl-benzamide] belongs 3 nM.
For the compound `CC(C)(C)Cc1ccc(C2CN(C(=O)N3CC[C@@H]4OCC(=O)N[C@@H]4C3)C2)cc1` [Example 261, (4aR,8aS)-6-[3-[4-(2,2-Dimethylpropyl)phenyl]azetidine-1-carbonyl]-4,4a,5,7,8,8a-hexahydropyrido[4,3-b][1,4]oxazin-3-one], inhibition was half-maximal at 0.07 nM (IC50).
